The structures appear in SMILES notation. Where a name gives a salt, the structure may show the parent alone.

Common to all, as to assay type: cell-based
The test system of assay [1] is NCI-H2023. As to the kind of experiment: Viability assay with NCI-H2023. Conditions: NCI-H2023, viability assay per Example 57. As to the method: NCI-H460 (Epithelial lung tissue; carcinoma; large cell lung cancer) were cultured in RPMI Medium 1640 (Invitrogen-22400105) supplemented with 10% fetal bovine serum (FBS; Invitrogen-10099141). All the cell lines were maintained in a humidified incubator at 37° C. with 5% CO2. Cell culture media and supplements were purchased from Invitrogen, and tissue culture flasks were purchased from Corning, 96-well plates were purchased from Greiner. CellTiter-Glo Luminescent Cell Viability Assay kits were purchased from Promega (Promega-G7573), cells counter Vi-Cell was purchased from Beckman, D300e digital dispenser was purchased from Tecan, detection instrument Envision was purchased from PerkinElmer.
Paclitaxel was purchased from SELLECK, test compounds, such as any one of the compounds disclosed herein, attained solubility in DMSO and when diluted into culture media. DMSO, solutions containing the test compounds, and culture media were warmed to 37° C. or room temperature for the solution preparation and dilutions.
NCI-H460 Cell line were seeded in 96-well plates (1200/well) and allowed to adhere to overnight (100 uL/well), for drug treatments with 2 fold dilution, 9 dose points, triplicates or vehicle control, compound stock solutions were prepared in DMSO and use D300e digital dispenser to add compounds to the wells to give the indicated final drug concentrations. Final DMSO concentration was 0.5%. Cellular ATP concentrations were assessed by using the CellTiter-Glo Cell Viability Assay as per the manufacturer's instructions 72 h after compounds addition. Additional cells lines were assayed with any one of the compounds disclosed herein according to the procedures described for the viability assay with NCI-H460.
A viability assay with NCI-H2023 (stage 3A, adenocarcinoma; non-small cell lung cancer) was performed with compounds listed in Table 16 according to the procedures described in Example 57.

For assay [2], the system named is MIA PaCa-2. As to the kind of experiment: Viability assay with MIA PaCa-2. Conditions: MIA PaCa-2, viability assay per Example 57. The method in brief: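 MIA PaCa-2 cells were seeded at 1200/well, allowed to adhere overnight, then treated in triplicate with 9-point 2-fold compound dilutions at 0.5% final DMSO. Viability was measured as cellular ATP by CellTiter-Glo luminescence 72 h after compound addition.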

Assay [3] deals with NCI-H460. Put plainly: Viability assay with NCI-H460 (CellTiter-Glo cytotoxicity assay, 72 h). Conditions: NCI-H460 cell line, 72 h after compounds addition. Summed up: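 NCI-H460 cells, RPMI 1640 + 10% FBS, seeded 1200/well and adhered overnight, then exposed to compounds at 9 points, 2-fold dilution, in triplicate, 0.5% DMSO final. Cellular ATP measured by CellTiter-Glo luminescence 72 h after addition.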

Assay [4] deals with HT-29. Put plainly: Viability assay with HT-29. Conditions: HT-29, viability assay per Example 57. Summed up:
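Cells seeded 1200/well, adhered overnight, then treated with 9-point 2-fold compound dilutions in triplicate (0.5% final DMSO). Viability taken as cellular ATP by CellTiter-Glo luminescence 72 h after compound addition.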

Turning to `NC1(C(=O)NCCCn2cc(-c3ccc(O)cc3)c3cc(CN4CCN(Cc5c(Cl)cccc5Cl)CC4)ccc32)CCNCC1` [C36; HCl], the EC50 (in general, the midpoint of the concentration-response curve) in assay [1] was > 30 µM; in assay [2], 10 to 30 µM; in assay [3] it was > 30 µM.
In the case of `NCCCn1cc(-c2ccc(OC(F)(F)F)cc2)c2cc(CN3CCN(Cc4cccc(F)c4Cl)CC3)ccc21` [C19; HCl], the EC50 in assay [1], in assay [2] and in assay [3] was ≤ 5 µM each time.
With `CCOC(=O)CNCCCn1cc(-c2ccc(OC(F)(F)F)cc2)c2cc(CN3CCN(Cc4c(Cl)cccc4Cl)CC3)ccc21` [Compound C28, ethyl 2-(3-(5-((4-(2,6-dichlorobenzyl)piperazin-1-yl)methyl)-3-(4-(trifluoromethoxy)phenyl)-1H-indol-1-yl)propylamino)acetate], the figures for the EC50 in assay [1], in assay [2] (Homo sapiens) and in assay [3] (Homo sapiens) were 5 to 10 µM, ≤ 5 µM and 5 to 10 µM, respectively.
`COc1cc(OC)cc(C(C)(C)N2CCN(Cc3ccc4c(c3)c(-c3ccc(OC(F)(F)F)cc3CN)cn4CCCN)CC2)c1` [C285; HCl]: the EC50 in assay [2], in assay [3] and in assay [4] was ≤ 5 µM each time.
`NCCCn1cc(-c2ccc(OC(F)(F)F)cc2)c2c(CN3CCN(CCc4ccccc4Cl)CC3)cccc21` [C147; HCl]: the EC50 in assay [2], in assay [3] and in assay [4] was ≤ 5 µM each time.
For the compound `CCC1CCN(Cc2ccc3c(c2)c(-c2ccc(OC)cc2CN)cn3CCCN)CC1` [C255; HCl], the EC50 in assay [2] was ≤ 5 µM; in assay [3], 5 to 10 µM; in assay [4], 5 to 10 µM.
Consider `CN(CCN(C)C(=O)c1ccc2c(c1)c(-c1ccc(OC(F)(F)F)cc1)cn2CCCN)Cc1ccccc1Cl` [C193; HCl], for which the EC50 in assay [2], in assay [3] and in assay [4] was ≤ 5 µM each time.
Turning to `CC(C)(N)CCCn1cc(-c2ccc(OC(F)(F)F)cc2)c2cc(CN3CCN(Cc4ccccc4Cl)CC3)ccc21` [C132; Formic acid], the EC50 in assay [2], in assay [3] and in assay [4] was ≤ 5 µM throughout.
Consider `NCCCn1cc(-c2ccc(OC(F)(F)F)cc2)c2cc(CN3CCC(Oc4ccccc4Cl)CC3)ccc21` [C215; HCl], for which the EC50 in assay [2], in assay [3] and in assay [4] was ≤ 5 µM in each case.
For the compound `NCCCn1cc(-c2ccc(OC(F)(F)F)cc2)c2cc(CN3CCC(Nc4ccc(Cl)cc4)CC3)ccc21` [C210; HCl], the EC50 in assay [2], in assay [3] and in assay [4] was ≤ 5 µM each time.
For `NCCCn1cc(-c2ccc(OC(F)(F)F)cc2)c2cc(CN3CCN(Cc4ccc(Cl)cc4)CC3)ccc21` [C137; HCl], the EC50 in assay [2], in assay [3] and in assay [4] was ≤ 5 µM throughout.
On to `COc1ccc(-c2cn(CCCN)c3ccc(CN4CCN(Cc5ccccc5Cl)CC4)cc23)c(CN)c1` [C222; HCl], for which the EC50 in assay [2], in assay [3] and in assay [4] was ≤ 5 µM each time.
On to `NCCCn1cc(-c2ccc(OC(F)(F)F)cc2)c2cc(CN3CCN(Cc4ccc(C(F)(F)F)cc4)CC3)ccc21` [C136; HCl], for which the EC50 in assay [2], in assay [3] and in assay [4] was ≤ 5 µM each time.
Turning to `FC(F)(F)Oc1ccc(-c2cn(CCCCN(c3ccccn3)c3ccccn3)c3ccc(CN4CCN(Cc5ccccc5Cl)CC4)cc23)cc1` [C205; Formic Acid], the EC50 in assay [2], in assay [3] and in assay [4] was 5 to 10 µM each time.
As to `NCCCn1cc(-c2ccc(OC(F)(F)F)cc2CN)c2cc(CN3CCC4(CCN(Cc5ccccc5Cl)CC4)C3)ccc21` [C250; HCl], the EC50 in assay [2], in assay [3] and in assay [4] was ≤ 5 µM each time.
Take `NCCCn1cc(-c2ccc(OC(F)(F)F)cc2)c2cc(CN3CCC(NCC(F)(F)F)CC3)ccc21` [C233; HCl]: the EC50 in assay [2] was 5 to 10 µM; in assay [3], ≤ 5 µM; in assay [4], 5 to 10 µM.
With `NCc1cc(OC(F)(F)F)ccc1-c1cn(CC2CCNCC2)c2ccc(CN3CCN(Cc4ccccc4Cl)CC3)cc12` [C237; HCl], the EC50 in assay [2], in assay [3] and in assay [4] was ≤ 5 µM in each case.
As to `NCCCn1cc(-c2ccc(OC(F)(F)F)cc2CN)c2cc(CN3CCC4(CC3)CCN(Cc3ccccc3Cl)C4)ccc21` [C249; Formic Acid], the EC50 in assay [2], in assay [3] and in assay [4] was ≤ 5 µM throughout.
Consider `COc1cccc(CN2CCC(Cc3ccc4c(c3)c(-c3ccc(OC(F)(F)F)cc3CN)cn4CCCN)CC2)c1` [C291; HCl], for which the 50% effective concentration (EC50) in assay [2], in assay [3] and in assay [4] was ≤ 5 µM throughout.
Regarding `CCC1CCN(Cc2ccc3c(c2)c(-c2ccc(OC(F)(F)F)cc2)cn3CCCN)CC1` [C226; HCl], the EC50 in assay [2], in assay [3] and in assay [4] was ≤ 5 µM throughout.
Take `COc1cc(CN2CCN(S(=O)(=O)c3ccc4c(c3)c(-c3ccc(OC(F)(F)F)cc3CN)cn4CCCN)CC2)cc(OC)c1` [C240; Formic Acid]: the EC50 in assay [2], in assay [3] and in assay [4] was ≤ 5 µM in each case.
As to `NCC(=O)N1CCC(n2cc(-c3ccc(OC(F)(F)F)cc3)c3cc(CN4CCN(Cc5ccccc5Cl)CC4)ccc32)CC1` [C203; HCl], the EC50 in assay [2], in assay [3] and in assay [4] was ≤ 5 µM in each case.
Regarding `FC(F)(F)Oc1ccc(-c2cn(C3CCNCC3)c3ccc(CN4CCN(Cc5ccccc5Cl)CC4)cc23)cc1` [C170; HCl], the EC50 in assay [2], in assay [3] and in assay [4] was ≤ 5 µM throughout.
Take `NCc1ccc(-n2cc(-c3ccc(OC(F)(F)F)cc3)c3cc(CN4CCN(Cc5ccccc5Cl)CC4)ccc32)cc1` [C149; Formic Acid]: the EC50 in assay [2], in assay [3] and in assay [4] was ≤ 5 µM throughout.
For `COc1ccc(-c2cn(CCCN)c3ccc(CN4CCN(Cc5ccccc5Cl)CC4)cc23)nc1` [C196; HCl], the EC50 in assay [2], in assay [3] and in assay [4] was ≤ 5 µM in each case.
`NCCCn1cc(-c2ccc(OC(F)(F)F)cc2)c2cc(CN3CCC(Nc4cccc(Cl)c4)CC3)ccc21` [C214; Formic Acid]: the EC50 in assay [2], in assay [3] and in assay [4] was ≤ 5 µM in each case.
Consider `NCCCn1cc(-c2ccc(CO)cc2)c2cc(CN3CCN(Cc4ccccc4Cl)CC3)ccc21` [C142; Formic Acid], for which the EC50 in assay [2] is 5 to 10 µM; in assay [3], ≤ 5 µM; in assay [4], 5 to 10 µM.
`COc1cccc(CC2CN(Cc3ccc4c(c3)c(-c3ccc(OC(F)(F)F)cc3CN)cn4CCCN)C2)c1` [C279; Formic Acid]: the half-maximal effective concentration (EC50) in assay [2], in assay [3] and in assay [4] was ≤ 5 µM throughout.
Regarding `NCCCn1cc(-c2ccc(OC(F)(F)F)cc2)c2cc(CN3CCN(Cc4ncccc4Cl)CC3)ccc21` [C151; HCl], the EC50 in assay [2], in assay [3] and in assay [4] was ≤ 5 µM throughout.
In the case of `COc1ccc(-c2cn(CCCCN)c3ccc(CN4CC5CCC(C4)N5Cc4ccccc4Cl)cc23)cc1` [C133; HCl], the EC50 in assay [2], in assay [3] and in assay [4] was ≤ 5 µM throughout.
Take `NCc1ccc(Cn2cc(-c3ccc(OC(F)(F)F)cc3)c3cc(CN4CCN(Cc5ccccc5Cl)CC4)ccc32)cn1` [C224; Formic Acid]: the EC50 in assay [2], in assay [3] and in assay [4] was ≤ 5 µM throughout.
Regarding `FC(F)(F)Oc1ccc(-n2cc(C3CCNCC3)c3cc(CN4CCN(Cc5ccccc5Cl)CC4)ccc32)cc1` [C217; HCl], the EC50 in assay [2], in assay [3] and in assay [4] was ≤ 5 µM throughout.
As to `Cc1ccc(-c2cn(CCCN)c3ccc(CC4CCN(Cc5ccccc5Cl)CC4)cc23)c(CN)c1` [C269; Formic Acid], the EC50 in assay [2], in assay [3] and in assay [4] was ≤ 5 µM in each case.

(Values after US20170158702A1, “MULTIVALENT RAS BINDING COMPOUNDS” (KYRAS THERAPEUTICS, INC., priority 2015, published 2017).)
